Series [1] can be described thus: In vitro metabolic stability in mouse liver microsomes.
Series [2] has as its system MDA-MB-231 cells. The series can be described thus: Resazurin. The conditions noted are these: MDA-MB-231 cells.
The next series can be described thus: Resazurin. The settings on record: human.
Series [3] relates to 13 other methyltransferases. Format: biochemical. The conditions noted are these: read-out: IC50 against 13 other methyltransferases.
Series [4] concerns panel of 50 representative kinases. As to the kind of experiment: Kinase selectivity panel. Format: biochemical. The conditions noted are these: at 10,000 nM.
Series [5] is described as follows: Resazurin cell toxicity assay. Format: cell-based. The settings on record: human, PANC-1 cells, Cell Toxicity EC50, PANC-1 cells.
Series [6] concerns the target T1, G9a (Homo sapiens, UniProt Q96KQ7).
T1 sequence (Q96KQ7 1-1210): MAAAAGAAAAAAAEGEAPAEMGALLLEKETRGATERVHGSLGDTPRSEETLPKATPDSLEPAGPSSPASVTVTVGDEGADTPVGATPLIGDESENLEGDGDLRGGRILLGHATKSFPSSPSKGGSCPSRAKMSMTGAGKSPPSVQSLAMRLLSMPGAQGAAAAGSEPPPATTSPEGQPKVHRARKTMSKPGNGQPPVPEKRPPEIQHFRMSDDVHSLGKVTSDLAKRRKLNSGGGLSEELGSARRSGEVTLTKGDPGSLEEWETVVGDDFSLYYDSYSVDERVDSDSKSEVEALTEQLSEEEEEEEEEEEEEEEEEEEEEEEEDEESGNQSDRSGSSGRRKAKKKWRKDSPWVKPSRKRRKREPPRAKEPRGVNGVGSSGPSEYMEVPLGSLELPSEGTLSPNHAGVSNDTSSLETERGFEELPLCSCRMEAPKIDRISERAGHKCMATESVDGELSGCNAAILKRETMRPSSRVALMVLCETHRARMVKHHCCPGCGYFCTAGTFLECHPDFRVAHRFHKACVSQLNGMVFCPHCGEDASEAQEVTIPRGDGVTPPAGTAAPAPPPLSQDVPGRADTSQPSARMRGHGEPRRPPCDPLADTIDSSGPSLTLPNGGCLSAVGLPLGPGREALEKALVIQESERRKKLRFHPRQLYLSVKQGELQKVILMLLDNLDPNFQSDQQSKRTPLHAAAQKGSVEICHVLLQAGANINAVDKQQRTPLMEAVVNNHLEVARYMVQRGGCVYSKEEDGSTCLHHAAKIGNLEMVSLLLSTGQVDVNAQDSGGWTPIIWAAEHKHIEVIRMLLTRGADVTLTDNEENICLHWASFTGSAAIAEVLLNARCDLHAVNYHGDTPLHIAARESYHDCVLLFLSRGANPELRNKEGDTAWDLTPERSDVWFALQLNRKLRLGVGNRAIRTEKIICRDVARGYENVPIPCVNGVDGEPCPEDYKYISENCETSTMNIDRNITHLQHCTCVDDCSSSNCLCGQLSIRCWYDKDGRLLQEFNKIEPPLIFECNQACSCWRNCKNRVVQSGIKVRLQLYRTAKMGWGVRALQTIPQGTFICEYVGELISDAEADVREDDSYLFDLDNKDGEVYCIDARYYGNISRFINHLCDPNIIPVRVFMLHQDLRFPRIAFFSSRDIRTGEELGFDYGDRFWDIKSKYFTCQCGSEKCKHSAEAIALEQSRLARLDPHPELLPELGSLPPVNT
The series can be described thus: Competition of inhibitor with cofactor SAM. Format: biochemical. The settings on record: Km app of SAM versus inhibitor concentration.

In series [7] the target is T1, G9a. The settings on record: Km app of peptide versus inhibitor concentration.
The nature of series [8]: Resazurin cell toxicity assay. It is filed as cell-based. The settings on record: human, U2OS cells.
For series [9], the system named is MDA-MB-231 cells. As to the kind of experiment: Clonogenicity assay. It is filed as cell-based. The conditions noted are these: 2 weeks, 0.5 or 1 µM.
The subject of series [10] is 44 GPCRs, transporters, and ion channels. It is filed as binding.
A further series concerns the target PRC2 – EZH2 (Homo sapiens, UniProt Q15910). As to the kind of experiment: biochemical.
The test system of another series is PANC-1 cells. As to the kind of experiment: Clonogenicity assay. The conditions noted are these: 2 weeks, 0.5 or 1 µM. It is filed as cell-based.

Consider 8 compounds from publication PMC3880643 (Journal of medicinal chemistry, 2013).

Each structure is given as a SMILES string. A value given as a limit tells only on which side of the number the result lay.

Chain of PRC2 – EZH2 (Q15910 whole entry): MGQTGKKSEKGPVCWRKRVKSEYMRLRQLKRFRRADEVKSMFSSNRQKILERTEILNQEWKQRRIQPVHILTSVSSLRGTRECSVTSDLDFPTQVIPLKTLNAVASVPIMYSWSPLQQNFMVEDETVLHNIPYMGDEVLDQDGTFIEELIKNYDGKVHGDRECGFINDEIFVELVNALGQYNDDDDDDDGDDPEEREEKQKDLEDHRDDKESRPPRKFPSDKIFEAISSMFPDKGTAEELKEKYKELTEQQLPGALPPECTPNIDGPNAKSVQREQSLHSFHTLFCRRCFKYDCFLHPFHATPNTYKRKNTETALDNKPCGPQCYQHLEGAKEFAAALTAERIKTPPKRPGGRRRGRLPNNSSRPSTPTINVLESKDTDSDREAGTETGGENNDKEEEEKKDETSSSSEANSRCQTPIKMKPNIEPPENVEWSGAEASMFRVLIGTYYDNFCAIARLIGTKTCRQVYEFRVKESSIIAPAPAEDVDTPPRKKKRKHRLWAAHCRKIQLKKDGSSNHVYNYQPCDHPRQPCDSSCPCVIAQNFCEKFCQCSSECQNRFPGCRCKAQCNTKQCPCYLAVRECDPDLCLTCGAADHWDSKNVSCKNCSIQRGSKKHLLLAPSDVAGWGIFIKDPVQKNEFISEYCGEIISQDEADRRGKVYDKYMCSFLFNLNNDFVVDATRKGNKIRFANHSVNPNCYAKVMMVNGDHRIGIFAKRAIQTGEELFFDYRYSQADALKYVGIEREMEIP
Chain of PRC2 – EZH2 (O75530 whole entry, further chain): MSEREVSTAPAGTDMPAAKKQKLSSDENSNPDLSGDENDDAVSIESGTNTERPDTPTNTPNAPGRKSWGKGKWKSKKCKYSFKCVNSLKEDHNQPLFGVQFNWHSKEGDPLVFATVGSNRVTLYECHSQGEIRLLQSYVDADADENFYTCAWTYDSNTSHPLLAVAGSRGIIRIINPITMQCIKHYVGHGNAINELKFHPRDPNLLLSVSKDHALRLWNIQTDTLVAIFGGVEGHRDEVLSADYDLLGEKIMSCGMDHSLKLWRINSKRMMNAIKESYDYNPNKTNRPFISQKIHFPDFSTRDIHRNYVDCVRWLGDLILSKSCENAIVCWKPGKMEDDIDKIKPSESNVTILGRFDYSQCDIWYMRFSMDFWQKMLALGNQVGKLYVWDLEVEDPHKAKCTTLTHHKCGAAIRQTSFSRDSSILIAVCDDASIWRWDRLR
Chain of PRC2 – EZH2 (Q15022 whole entry, further chain): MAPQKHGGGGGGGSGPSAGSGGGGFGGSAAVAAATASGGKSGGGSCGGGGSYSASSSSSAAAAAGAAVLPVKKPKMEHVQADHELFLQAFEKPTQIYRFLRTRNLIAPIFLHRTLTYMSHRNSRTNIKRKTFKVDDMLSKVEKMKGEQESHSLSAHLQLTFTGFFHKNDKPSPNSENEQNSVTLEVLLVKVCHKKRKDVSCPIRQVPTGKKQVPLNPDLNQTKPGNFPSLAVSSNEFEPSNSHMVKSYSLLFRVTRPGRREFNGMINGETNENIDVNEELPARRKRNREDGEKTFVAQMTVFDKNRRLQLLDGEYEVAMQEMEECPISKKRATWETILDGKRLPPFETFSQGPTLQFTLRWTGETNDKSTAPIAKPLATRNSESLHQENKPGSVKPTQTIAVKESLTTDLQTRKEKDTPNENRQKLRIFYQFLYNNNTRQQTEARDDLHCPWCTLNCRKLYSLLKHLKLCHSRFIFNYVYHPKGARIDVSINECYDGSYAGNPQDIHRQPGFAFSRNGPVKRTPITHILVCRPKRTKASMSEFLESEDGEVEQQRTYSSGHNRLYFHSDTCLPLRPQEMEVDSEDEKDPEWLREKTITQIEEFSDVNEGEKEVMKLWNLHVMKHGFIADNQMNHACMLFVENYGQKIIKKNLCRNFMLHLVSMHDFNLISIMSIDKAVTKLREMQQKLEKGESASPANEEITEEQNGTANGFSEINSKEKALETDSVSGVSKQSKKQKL

`COc1cc2c(NC3CCN(C(C)C)CC3)nc(C3CCCCC3)nc2cc1OCCCN1CCCC1` [Compound 5, reference compound] gave a CLint in series [1] of 1.0 mL/min/g liver.

Compound `COc1cc2c(NC3CCN(C(C)C)CC3)nc(C3CCOCC3)nc2cc1OCCCN1CCCC1` [Compound 22, N-(1-Isopropylpiperidin-4-yl)-6-methoxy-7-(3-(pyrrolidin-1-yl)propoxy)-2-(tetrahydro-2H-pyran-4-yl)quinazolin-4-amine] showed a CLint in [1] of 4.7 mL/min/g liver. Also, the “Tox/function Ratio” value in the series with MDA-MB-231 cells [2] (toxicity EC50 divided by functional IC50) is recorded as above 130. Besides, in “Resazurin”, the EC50 at 48 h is above 50 µM.

`COc1cc2c(NC3CCN(C4CC4)CC3)nc(N3CCS(=O)(=O)CC3)nc2cc1OCCCN1CCCC1` [Compound 19, 4-(4-((1-Cyclopropylpiperidin-4-yl)amino)-6-methoxy-7-(3-(pyrrolidin-1-yl)propoxy)quinazolin-2-yl)thiomorpholine 1,1-dioxide] yielded an EC50 at 48 h in “Resazurin” above 50 µM.

`COc1cc2c(NC3CCN(C(C)C)CC3)nc(N3CCC(F)(F)CC3)nc2cc1OCCCN1CCCC1` [Compound 7, 2-(4,4-Difluoropiperidin-1-yl)-N-(1-isopropylpiperidin-4-yl)-6-methoxy-7-(3-(pyrrolidin-1-yl)propoxy)quinazolin-4-amine]: the IC50 is above 50 µM in series [3] and above 5 µM against PRC2 – EZH2. Further, in series [4], the “Inhibition of panel of 50 representative kinases” value was “less than 20%”. This compound also came in with a CLint in series [1] of 0.5 mL/min/g liver. Also, the EC50 at 48 h in series [5] and in series [8] was above 3 µM in each case. Moreover, the “Mechanism of action versus cofactor SAM” value on G9a [6] was “non-competitive with the cofactor SAM”. Further, the “Mechanism of action versus peptide substrate” value on G9a [7] is given as “competitive with the peptide substrate”. In addition, the figures for the Effect on clonogenicity result with MDA-MB-231 cells [9] and with PANC-1 cells were “no effect on clonogenicity” and “reduced clonogenicity in PANC-1 cells in a concentration-dependent manner”, respectively. In addition, the “Inhibition against 5 targets of the 44-target panel” value in series [10] is above 50%. Further, in [10], the “Inhibition against 39 targets of the 44-target panel” value is “less than 50%”.

Compound `COc1cc2c(NC3CCN(C(C)C)CC3)nc(N3CCCCC3)nc2cc1OCCCN1CCCC1` [Compound 16] registered an EC50 at 48 h in “Resazurin” of 7 µM.

Compound `COc1cc2c(NC3CCN(C(C)C)CC3)nc(N3CCOCC3)nc2cc1OCCCN1CCCC1` [Compound 13, N-(1-Isopropylpiperidin-4-yl)-6-methoxy-2-morpholino-7-(3-(pyrrolidin-1-yl)propoxy)quinazolin-4-amine] gave a CLint in series [1] of 0.7 mL/min/g liver.

For `COc1cc2c(NC3CCN(C(C)C)CC3)nc(N3CCCCCC3)nc2cc1OCCCN1CCCC1` [Compound 17], the EC50 with MDA-MB-231 cells [2] (read-out: Cell Toxicity EC50, 48 h) was 5.7 µM.

In the case of `COc1cc2c(NC3CCN(C(C)C)CC3)nc(N3CC(F)(F)C(F)(F)C3)nc2cc1OCCCN1CCCC1` [Compound 15, N-(1-Isopropylpiperidin-4-yl)-6-methoxy-7-(3-(pyrrolidin-1-yl)propoxy)-2-(3,3,4,4-tetrafluoropyrrolidin-1-yl)quinazolin-4-amine], the CLint in series [1] is reported as below 0.5 mL/min/g liver.
